In patent publication US20240217951A1, “PCSK9 INHIBITORS AND METHODS OF USE THEREOF” (AstraZeneca AB, priority 2022, published 2024) one finds IC50 and EC50 data, which are given here for 16 molecules.

For test [1], the target named is T1, potassium ion channel hERG (human Ether-á-go-go-Related Gene) (Homo sapiens, UniProt Q12809).
T1 construct: expressed in transfected cells; host or cells: Chinese hamster ovary K1 (CHO)
As to the kind of experiment: Assay 5 - hERG assay (SyncroPatch 384PE patch clamp, CHO cells). In kind it is cell-based. As to conditions: geometric mean; CHO cells over-expressing hERG; read-out: Assay 5 (hERG Hu CHO IF EPh CR-Syncro) GMean IC50. The procedure, abridged:
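Automated high-throughput patch clamp on CHO-K1 cells overexpressing hERG at room temperature, KF/KCl internal with escin, NMDG-containing external at pH 7.4. Six-point cumulative compound addition, 0.33% DMSO final; wells kept only with seal >30 MΩ, Z′ >0.4 and current >0.2 nA.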

Test [2] has as its target T2, PCSK9 (Homo sapiens, UniProt Q8NBP7, G670E/V474I). As to the kind of experiment: biochemical.
The target of test [3] is GSK3β (Glycogen synthase kinase-3 beta) (Homo sapiens, UniProt P49841). As to the kind of experiment: Assay 6 - GSK3β assay (ThermoFisher Z-Lyte). The class given is biochemical. To be noted: geometric mean; ATP Conc: 10 μM; read-out: Assay 6 (GSK3β FRET-Z-Lyte CR) GMean IC50 (μM) ATP Conc: 10. A digest of the protocol:
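Z-Lyte fluorescence kinase assay with 0.22-0.92 ng GSK3β and 2 μM Ser/Thr 09 peptide in 50 mM HEPES pH 7.5, 10 mM MgCl2, 1 mM EGTA, 0.01% BRIJ-35. Kinase reaction 60 min at room temperature, then 60 min development. 10-point 3-fold titration from 10 μM in 1% DMSO, fitted to a sigmoidal dose-response curve.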

Test [4] has as its target T2, PCSK9. Description: Assay 3 - PCSK9 LDL-C uptake assay in HepG2 cells. In kind it is cell-based. Also on record: TEV cleavage site (C); His6 (C); host or cells: added to HepG2 cells (ATCC #HB-8065). To be noted: 125 nM PCSK9, pHrodo Red-LDL, read-out: Assay 3 LDL uptake potency. From the text:
Assay 3—PCSK9 LDL-C Uptake Assay
This assay measures for PCSK9 antagonist activity based on a test compound's capacity to restore LDL-C-uptake in HepG2 cells. The assay is based on exogenous PCSK9 and LDL-C complexed with a pH-sensitive dye. Outside the cells, at neutral pH, the pHrodo Red-LDL is dimly fluorescent but upon LDLR mediated endocytosis it fluoresces brightly. PCSK9 traffics the LDLR to intracellular degradation and reduces uptake of LDL-C. Inhibition of PCSK9 reduces LDLR degradation and the increased LDL-C uptake is quantified by fluorescence microscopy.
Preparation of Assay Reagents
Cell medium: MEM supplemented with 10% FBS, 1×NEAA and Sodium Pyruvate Assay medium: OptiMem supplemented with penicillin/streptomycin
Cells: HepG2 (ATCC #HB-8065)
Step by Step Protocol for Running the Assay:
• 1. Cryopreserved HepG2 cells were thawed in assay medium and centrifuged for 5 min at 250 g. Supernatant was discarded and the cell pellet resuspended in cell medium and counted with a Nucleocounter. Cells were again centrifuged 5 min at 250 g and the pellet was resuspended to 500000 cells/mL in assay medium. • 2. 20 μL of above cell mix was dispensed into black pclear TC treated 384 well plates with Multidrop Combi and left at room temperature for 20 minutes. • 3. Plates were incubated at 37° C., 5% CO2 for 24 h
• 1. Test compounds were prepared in concentration response in DMSO with a half-log dilution factor in DMSO in Echo 384 LDV plates starting at 10 mM. • 2. 30 nL of above test compounds were dispensed with Echo 655 to cells for a top concentration of 10 μM • 3. 10 μL PCSK9 in assay medium was dispensed to cells with Multidrop Combi for 125 nM final concentration in the wells. • 4. Plates were incubated at 37° C., 5% CO2 for 24 h
• 1. 10 μL pHrodo Red-LDL in assay medium was dispensed to cells with Multidrop Combi for 6 μg/mL • 2. Plates were incubated at 37° C., 5% CO2 and imaged with the Incucyte S3 after 4 h and 24 h
Image data was processed using Incucyte 2021, a software to identify cells and red fluorescent intensity. Screener was used to further process data. Data was normalized as % effect of the signal between median values of the on-plate controls of DMSO and 100 nM Evolocumab according to the formula % effect=−100*(x−DMSO)/(Evolocumab−DMSO) where x equals the measured signal. Concentration response data of the normalized values were fitted using a four-parameter logistic fit.

Chain of GSK3β (Glycogen synthase kinase-3 beta) (P49841 whole entry): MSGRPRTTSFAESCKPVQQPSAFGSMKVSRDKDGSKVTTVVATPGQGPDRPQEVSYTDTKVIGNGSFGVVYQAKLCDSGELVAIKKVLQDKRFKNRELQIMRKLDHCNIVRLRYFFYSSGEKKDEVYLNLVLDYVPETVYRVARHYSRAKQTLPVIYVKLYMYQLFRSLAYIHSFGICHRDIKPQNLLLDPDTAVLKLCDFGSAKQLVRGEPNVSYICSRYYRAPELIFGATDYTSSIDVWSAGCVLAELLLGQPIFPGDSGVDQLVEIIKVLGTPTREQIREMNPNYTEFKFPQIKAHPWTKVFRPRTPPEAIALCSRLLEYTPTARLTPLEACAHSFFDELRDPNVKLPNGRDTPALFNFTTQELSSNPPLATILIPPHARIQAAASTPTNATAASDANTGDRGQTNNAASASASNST
T1 sequence (Q12809 whole entry): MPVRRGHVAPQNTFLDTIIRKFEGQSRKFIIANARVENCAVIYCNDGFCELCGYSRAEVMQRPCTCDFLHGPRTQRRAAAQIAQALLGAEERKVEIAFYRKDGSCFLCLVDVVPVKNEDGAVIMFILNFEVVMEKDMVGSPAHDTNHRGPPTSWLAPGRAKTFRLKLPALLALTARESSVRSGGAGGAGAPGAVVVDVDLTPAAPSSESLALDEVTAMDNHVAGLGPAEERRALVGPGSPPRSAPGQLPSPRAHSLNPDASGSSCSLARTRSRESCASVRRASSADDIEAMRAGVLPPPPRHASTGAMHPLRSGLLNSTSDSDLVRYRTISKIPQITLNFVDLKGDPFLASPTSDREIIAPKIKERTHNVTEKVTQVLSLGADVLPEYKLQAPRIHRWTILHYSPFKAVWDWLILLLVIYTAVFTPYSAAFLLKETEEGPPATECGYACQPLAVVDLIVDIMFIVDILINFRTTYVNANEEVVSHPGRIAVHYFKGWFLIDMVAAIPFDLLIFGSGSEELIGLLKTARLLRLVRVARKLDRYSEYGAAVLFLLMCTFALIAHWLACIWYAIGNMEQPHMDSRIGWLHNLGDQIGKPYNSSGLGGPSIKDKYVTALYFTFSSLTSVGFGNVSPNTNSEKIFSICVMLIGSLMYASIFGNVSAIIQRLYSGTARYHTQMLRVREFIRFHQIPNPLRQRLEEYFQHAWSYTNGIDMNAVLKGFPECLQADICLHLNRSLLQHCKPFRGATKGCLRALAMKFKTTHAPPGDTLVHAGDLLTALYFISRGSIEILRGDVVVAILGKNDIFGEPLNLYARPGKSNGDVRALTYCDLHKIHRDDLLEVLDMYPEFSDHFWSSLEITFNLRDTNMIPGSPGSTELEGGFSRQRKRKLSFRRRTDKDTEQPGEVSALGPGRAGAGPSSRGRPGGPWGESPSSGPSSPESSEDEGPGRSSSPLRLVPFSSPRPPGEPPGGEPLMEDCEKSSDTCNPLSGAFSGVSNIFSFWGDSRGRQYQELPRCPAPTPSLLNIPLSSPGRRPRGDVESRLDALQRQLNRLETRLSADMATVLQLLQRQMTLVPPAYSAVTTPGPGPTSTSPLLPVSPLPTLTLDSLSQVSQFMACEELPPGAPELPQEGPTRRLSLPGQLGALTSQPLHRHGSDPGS
T2 sequence (Q8NBP7 with tags, fused parts or gaps V474I/G670E): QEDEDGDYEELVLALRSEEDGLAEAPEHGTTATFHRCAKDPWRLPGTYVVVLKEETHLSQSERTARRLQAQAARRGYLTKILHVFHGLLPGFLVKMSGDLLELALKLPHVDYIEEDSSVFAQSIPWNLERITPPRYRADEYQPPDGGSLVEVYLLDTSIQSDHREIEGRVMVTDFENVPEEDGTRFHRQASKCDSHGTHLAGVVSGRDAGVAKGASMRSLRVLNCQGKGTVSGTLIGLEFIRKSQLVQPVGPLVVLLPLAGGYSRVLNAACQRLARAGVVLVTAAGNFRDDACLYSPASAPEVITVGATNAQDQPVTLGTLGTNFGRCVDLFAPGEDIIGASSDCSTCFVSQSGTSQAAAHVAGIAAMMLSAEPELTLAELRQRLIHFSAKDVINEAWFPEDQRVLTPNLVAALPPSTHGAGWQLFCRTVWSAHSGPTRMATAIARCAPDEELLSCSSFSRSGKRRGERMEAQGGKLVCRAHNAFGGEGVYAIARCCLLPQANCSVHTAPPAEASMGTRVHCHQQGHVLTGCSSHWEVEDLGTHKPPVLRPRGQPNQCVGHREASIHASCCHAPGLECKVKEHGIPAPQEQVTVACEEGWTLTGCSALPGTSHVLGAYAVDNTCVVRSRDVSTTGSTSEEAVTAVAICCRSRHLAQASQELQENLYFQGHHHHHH

As to `N#Cc1cccn(-c2ccc(N[C@H]3CC[C@H](Nc4cnc(C5CC5)cn4)C3)nc2)c1=O` [Example 104, 6′-(((1S,3S)-3-((5-Cyclopropylpyrazin-2-yl)amino)cyclopentyl)amino)-2-oxo-2H-[1,3′-bipyridine]-3-carbonitrile], the IC50 in test [1] was 24200 nM; at PCSK9 [2], 5.8 nM; in test [3], > 10 µM. For the same molecule, on PCSK9 [4], the EC50 worked out at 500 nM.
In the case of `Cn1c(=O)n(-c2ccc(N[C@H]3CC[C@H](Nc4cnc(C5CC5)cn4)C3)nc2)c2ncccc21` [Example 105, 3-(6-(((1S,3S)-3-((5-Cyclopropylpyrazin-2-yl)amino)cyclopentyl)amino)pyridin-3-yl)-1-methyl-1,3-dihydro-2H-imidazo[4,5-b]pyridin-2-one], the IC50 was 20400 nM in test [1], 6.4 nM on PCSK9 [2] and > 10 µM in test [3]. Further, the EC50 at PCSK9 [4] was 800 nM.
The like results for `O=c1c(Cl)cccn1-c1ccc(N[C@H]2CC[C@H](Nc3cnc(C4CC4)cn3)C2)nc1` [Example 108, 3-Chloro-6′-(((1S,3S)-3-((5-Cyclopropylpyrazin-2-yl)amino)cyclopentyl)amino)-2H-[1,3′-bipyridin]-2-one] were, in that order, 12700 nM, 3.4 nM, > 10 µM and 400 nM.
For the molecule `Cc1cnc(N[C@H]2CC[C@H](Nc3ccc(-n4cccc(C(F)(F)F)c4=O)cn3)C2)cn1` [Example 147, 6′-(((1S,3S)-3-((5-Methylpyrazin-2-yl)amino)cyclopentyl)amino)-3-(trifluoromethyl)-2H-[1,3′-bipyridin]-2-one], the IC50 is 16600 nM in test [1], 5.2 nM on PCSK9 [2] and > 10 µM in test [3]. Further, the EC50 at PCSK9 [4] is 100 nM.
The like results for `Cc1cnc(N[C@H]2CC[C@H](Nc3ccc(-n4cccc(OC(F)(F)F)c4=O)cn3)C2)cn1` [Example 148, 6′-(((1S,3S)-3-((5-Methylpyrazin-2-yl)amino)cyclopentyl)amino)-3-(trifluoromethoxy)-2H-[1,3′-bipyridin]-2-one] were, in that order, > 40100 nM, 8 nM, > 10 µM and 200 nM.
Consider `Cc1ncc(N[C@H]2CC[C@H](Nc3ccc(-n4cc(-c5nnn[nH]5)ccc4=O)cn3)C2)nc1C` [Example 176, 6′-(((1S,3S)-3-((5,6-Dimethylpyrazin-2-yl)amino)cyclopentyl)amino)-5-(1H-tetrazol-5-yl)-2H-[1,3′-bipyridin]-2-one], for which the IC50 in test [1] is > 40100 nM; against PCSK9 [2], 12 nM; in test [3], > 10 µM. Further, at PCSK9 [4], the EC50 was 100 nM.
On to `Cc1cnc(N[C@H]2CC[C@H](Nc3ccc(-n4cc(-c5nnn[nH]5)ccc4=O)cn3)C2)cn1` [Example 177, 6′-(((1S,3S)-3-((5-Methylpyrazin-2-yl)amino)cyclopentyl)amino)-5-(1H-tetrazol-5-yl)-2H-[1,3′-bipyridin]-2-one], for which the IC50 was > 40100 nM in test [1], 5.4 nM at PCSK9 [2] and > 10 µM in test [3]. Moreover, the EC50 on PCSK9 [4] is 200 nM.
In the case of `O=c1ccc(-c2nnn[nH]2)cn1-c1ccc(N[C@H]2CC[C@H](Nc3cnc(OC(F)F)cn3)C2)nc1` [Example 178, 6′-(((1S,3S)-3-((5-(Difluoromethoxy)pyrazin-2-yl)amino)cyclopentyl)amino)-5-(1H-tetrazol-5-yl)-2H-[1,3′-bipyridin]-2-one], the IC50 in test [1] was > 40100 nM; against PCSK9 [2], 10 nM; in test [3] it was > 10 µM. Besides, at PCSK9 [4], the EC50 stood at 100 nM.
As for `Cc1cnc(N[C@H]2CC[C@H](Nc3ccc(-n4cccc(-c5cn[nH]c5)c4=O)cn3)C2)cn1` [Example 204, 6′-(((1S,3S)-3-((5-Methylpyrazin-2-yl)amino)cyclopentyl)amino)-3-(1H-pyrazol-4-yl)-2H-[1,3′-bipyridin]-2-one], the IC50 in test [1] was > 40100 nM; at PCSK9 [2], 3.5 nM; in test [3], > 10 µM. Further, the EC50 on PCSK9 [4] worked out at 400 nM.
The like results for `Cc1cnc(N[C@H]2CC[C@H](Nc3ccc(-n4cc(-c5cn[nH]c5)ccc4=O)cn3)C2)cn1` [Example 207, 6′-(((1S,3S)-3-((5-Methylpyrazin-2-yl)amino)cyclopentyl)amino)-5-(1H-pyrazol-4-yl)-2H-[1,3′-bipyridin]-2-one] were, in that order, > 40100 nM, 8.6 nM, > 10 µM and 400 nM.
Regarding `Cc1cnc(N[C@H]2CC[C@H](Nc3ccc(-n4cc(-c5c[nH]nn5)ccc4=O)cn3)C2)cn1` [Example 209, 6′-(((1S,3S)-3-((5-Methylpyrazin-2-yl)amino)cyclopentyl)amino)-5-(1H-1,2,3-triazol-4-yl)-2H-[1,3′-bipyridin]-2-one], the IC50 in test [1] is > 40100 nM; on PCSK9 [2] it was 6.3 nM; in test [3], > 10 µM. For the same molecule, the EC50 at PCSK9 [4] stood at 200 nM.
The like results for `Cc1cnc(N[C@H]2CC[C@H](Nc3ccc(-n4c(=O)n(C)c5ccc(C#N)cc54)cn3)C2)cn1` [Example 215, 1-Methyl-3-(6-(((1S,3S)-3-((5-methylpyrazin-2-yl)amino)cyclopentyl)amino)pyridin-3-yl)-2-oxo-2,3-dihydro-1H-benzo[d]imidazole-5-carbonitrile] were, in that order, 16000 nM, 1 nM, > 10 µM and 100 nM.
For the molecule `Cc1cnc(N[C@H]2CC[C@H](Nc3ccc(-n4c(=O)n(C)c5cc(C#N)ccc54)cn3)C2)cn1` [Example 216, 3-Methyl-1-(6-(((1S,3S)-3-((5-methylpyrazin-2-yl)amino)cyclopentyl)amino)pyridin-3-yl)-2-oxo-2,3-dihydro-1H-benzo[d]imidazole-5-carbonitrile], the IC50 was 7300 nM in test [1], 2.8 nM against PCSK9 [2] and > 10 µM in test [3]. In addition, the EC50 on PCSK9 [4] turned out to be 300 nM.
The like results for `Cc1cnc(N[C@H]2CC[C@H](Nc3ccc(-n4c(=O)n(C)c5cc(C#N)cnc54)cn3)C2)cn1` [Example 218, 1-Methyl-3-(6-(((1S,3S)-3-((5-methylpyrazin-2-yl)amino)cyclopentyl)amino)pyridin-3-yl)-2-oxo-2,3-dihydro-1H-imidazo[4,5-b]pyridine-6-carbonitrile] were, in that order, 22500 nM, 5.4 nM, > 10 µM and 300 nM.
For the molecule `Cc1cnc(N[C@H]2CC[C@H](Nc3ccc(-n4nccc(Cl)c4=O)cn3)C2)cn1` [Example 232, 4-Chloro-2-(6-(((1S,3S)-3-((5-methylpyrazin-2-yl)amino)cyclopentyl)amino)pyridin-3-yl)pyridazin-3 (2H)-one], the values for the IC50 (in test [1]; against PCSK9 [2]; in test [3]) were 39900 nM, 3.7 nM and > 10 µM, respectively. At PCSK9 [4], the EC50 was 500 nM.
For `Cc1cnc(N[C@H]2CC[C@H](Nc3ccc(-n4cc(CS(C)(=O)=O)ccc4=O)cn3)C2)cn1` [Example 259, 6′-(((1S,3S)-3-((5-Methylpyrazin-2-yl)amino)cyclopentyl)amino)-5-((methylsulfonyl)methyl)-2H-[1,3′-bipyridin]-2-one], the IC50 in test [1] was > 40100 nM; at PCSK9 [2] it was 43 nM; in test [3], > 10 µM. Moreover, at PCSK9 [4], the EC50 is > 600 nM.
